This note sets out measurements from the supplement of paper PMC11061612.

SMILES strings stand for the structures.

What all share (experiment): Bliss excess, mean over the matrix (fraction); higher = more synergy
Experiment [1] has as its system DEL (T-Cell Non-Hodgkin's Lymphoma). The gist of the method:
(§1)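 After 24 hours at 37°C and 5% CO2 in 1536-well plates, cells in DMEM/F12 or RPMI plus 10% FBS received two-drug dose matrices for 72 hours. Viability came from CellTiter-Glo 2.0 luminescence and was scaled as inhibition, anchored at 0 by vehicle wells and at 1 by blank wells. Combination Emax is taken as the second-highest inhibition in the matrix, and Bliss excess as the observed combination effect less EA + EB − EA·EB, with EA and EB the single-agent effects.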

Experiment [2] deals with KURAMOCHI (Ovarian Carcinoma). An outline of the steps: as §1
Experiment [3] concerns CaR-1 (Colorectal Carcinoma). The gist of the method: as §1
The next experiment has as its system NB10 (Neuroblastoma). An outline of the steps: as §1
Experiment [4] deals with Calu-3 (Lung Adenocarcinoma). The gist of the method:
as §1

Experiment [5] relates to DoTc2-4510 (Cervical Carcinoma). An outline of the steps: as §1
Experiment [6] relates to TE-9 (Esophageal Squamous Cell Carcinoma). An outline of the steps: as §1
For experiment [7], the system named is HuP-T4 (Pancreatic Carcinoma). An outline of the steps: as §1
In a further experiment the test system is 42-MG-BA (Glioblastoma). An outline of the steps:
as §1

For experiment [8], the system named is MDA-MB-361 (Breast Carcinoma). The gist of the method:
as §1

For experiment [9], the system named is TCCSUP (Bladder Carcinoma). An outline of the steps: as §1
Experiment [10] deals with TE-15 (Esophageal Squamous Cell Carcinoma). The gist of the method: as §1
Experiment [11] deals with Daoy (Other Solid Carcinomas). An outline of the steps:
as §1

In experiment [12] the test system is HT-1376 (Bladder Carcinoma). The gist of the method:
as §1

The next experiment relates to NOS-1 (Osteosarcoma). An outline of the steps: as §1
The next experiment relates to AGS (Gastric Carcinoma). An outline of the steps:
as §1

Experiment [13] deals with COLO-205 (Colorectal Carcinoma). The gist of the method:
as §1

In experiment [14] the test system is HO-1-N-1 (Oral Cavity Carcinoma). The gist of the method:
as §1

Experiment [15] has as its system NCI-H2085 (Non-Small Cell Lung Carcinoma). An outline of the steps:
as §1

Experiment [16] relates to UM-UC-3 (Bladder Carcinoma). The gist of the method:
as §1

Take `CCN(CCO)CCCOc1ccc2c(Nc3cc(CC(=O)Nc4cccc(F)c4)[nH]n3)ncnc2c1` [AZD2811] + C=CCn1c(=O)c2cnc(Nc3ccc(N4CCN(C)CC4)cc3)nc2n1-c1cccc(C(C)(C)O)n1 [AZD1775] (first compound max 1 µM, partner max 1 µM): the Bliss excess was 0.0636 in [1]; -0.0602 in [2]; -0.0165 in experiment [3]; -0.0399 in the experiment on NB10 (Neuroblastoma); -0.0306 in experiment [4]; -0.0323 in [5]. The Bliss excess in experiment [6] was -0.0285; in experiment [7], 0.0274; in the experiment with 42-MG-BA (Glioblastoma), 0.081; in [8], -0.0044; in experiment [9], -0.0204; in experiment [10], -0.0576. Also, the Bliss excess is 0.026 in experiment [11]; -0.0947 in experiment [12]; 0.0045 in the experiment with NOS-1 (Osteosarcoma); 0.0156 with AGS (Gastric Carcinoma); 0.008 in experiment [13]; -0.0785 in [14]. Besides, the Bliss excess in [15] was 0.0061; in experiment [16], -0.0171.
On to `CCN(CCO)CCCOc1ccc2c(Nc3cc(CC(=O)Nc4cccc(F)c4)[nH]n3)ncnc2c1` [AZD2811] + C[C@@H]1COCCN1C2=NC(=NC(=C2)C3(CC3)[S@](=N)(=O)C)C4=C5C=CNC5=NC=C4 [AZD6738] (first compound max 1 µM, 7x7, partner max 10 µM), for which the Bliss excess was 0.0156 in experiment [1]; -0.0649 in [2]; -0.0528 in experiment [3]; -0.056 in the experiment with NB10 (Neuroblastoma); -0.0169 in experiment [4]; -0.0481 in experiment [5]. In addition, the Bliss excess in experiment [6] was -0.009; in experiment [7], 0.0305; in the experiment on 42-MG-BA (Glioblastoma), 0.037; in experiment [8], -0.0816; in experiment [9] it was 0.0006; in [10], -0.0063. The Bliss excess in experiment [11] is -0.0153; in experiment [12], -0.0566; in the experiment on NOS-1 (Osteosarcoma), 0.0036; in the experiment on AGS (Gastric Carcinoma), -0.0191; in experiment [13], -0.0872; in [14] it was -0.053. Further, the figures for the Bliss excess in experiment [15] and in experiment [16] were -0.0913 and 0.0276, respectively.
As for `COc1nnc2ccc(N3CCC(c4ccc(OCCN5CCN(C)C(=O)[C@H]5C)cc4)CC3)nn12` [AZD5153] + CN(CC[C@H](CSC1=CC=CC=C1)NC2=C(C=C(C=C2)S(=O)(=O)NC(=O)C3=CC=C(C=C3)N4CCC(CC4)[C@H](C5=CC=CC=C5C6=CC=C(C=C6)Cl)O)S(=O)(=O)C(F)(F)F)CCO [AZD4320] (first compound max 1 µM, 7x7, partner max 1 µM), the Bliss excess in experiment [1] worked out at 0.0204; in experiment [7] it was 0.0267; in the experiment with 42-MG-BA (Glioblastoma) it was 0.101; in experiment [8] it was 0.0967; in [9], 0.0033; in experiment [11], 0.113. The Bliss excess with NOS-1 (Osteosarcoma) was 0.044; in the experiment on AGS (Gastric Carcinoma) it was -0.03; in [13] it was 0.0335.
As for `Cc1c2c(nn1C)CSCc1cc(n(C)n1)CSc1cc(c3ccccc3c1)OCCCc1c(C(=O)O)n(C)c3c-2c(Cl)ccc13` [AZD5991] + C=CCn1c(=O)c2cnc(Nc3ccc(N4CCN(C)CC4)cc3)nc2n1-c1cccc(C(C)(C)O)n1 [AZD1775] (first compound max 1 µM, partner max 1 µM), the Bliss excess in experiment [1] is -0.0201; in experiment [2], -0.0346; in experiment [3] it was -0.0103; in the experiment on NB10 (Neuroblastoma), -0.0441; in experiment [4], 0.0194; in experiment [5], -0.0399. In addition, the Bliss excess in experiment [6] was 0.0286; in [7], -0.0039; in the experiment with 42-MG-BA (Glioblastoma) it was 0.0071; in experiment [8], -0.052; in [9], -0.0021; in experiment [10], -0.0135. For the same molecule, the Bliss excess is 0.0375 in experiment [11]; 0.0345 in [12]; -0.0145 in the experiment on AGS (Gastric Carcinoma); -0.0959 in experiment [13]; -0.0348 in [14]; -0.0165 in [15]. Moreover, the Bliss excess in experiment [16] is -0.0077.
Consider `Cc1c2c(nn1C)CSCc1cc(n(C)n1)CSc1cc(c3ccccc3c1)OCCCc1c(C(=O)O)n(C)c3c-2c(Cl)ccc13` [AZD5991] + Cc1cc2ncnn2cc1Nc1ncc2c(n1)n(C1CCOCC1)c(=O)n2C [AZD7648] (first compound max 1 µM, 7x7, partner max 10 µM), for which the Bliss excess in experiment [1] was 0.0005; in experiment [2], -0.0228; in experiment [3], -0.0365; with NB10 (Neuroblastoma) it was 0.0047; in experiment [4], -0.0115; in experiment [6], 0.0162. The Bliss excess in [7] is -0.0562; in the experiment on 42-MG-BA (Glioblastoma), -0.0299; in experiment [8], -0.0344; in experiment [9] it was -0.0203; in [10], -0.0325; in experiment [11] it was -0.0069. Also, the Bliss excess in experiment [12] is -0.0218; in the experiment on NOS-1 (Osteosarcoma), 0.0112; in the experiment on AGS (Gastric Carcinoma), -0.037; in [13], -0.0604; in [14] it was -0.0039; in experiment [15] it was -0.0493. In experiment [16], the Bliss excess is 0.0053.
On to `CS(=O)(=O)CCNCc1ccc(-c2ccc3ncnc(Nc4ccc(OCc5cccc(F)c5)c(Cl)c4)c3c2)o1` [Lapatinib] + NC1(c2ccc(-c3nc4ccn5c(=O)[nH]nc5c4cc3-c3ccccc3)cc2)CCC1 [MK-2206] (first compound max 10 µM, 7x7, partner max 10 µM), for which the Bliss excess was 0.0264 in experiment [2]; -0.0032 in experiment [3]; -0.0423 with NB10 (Neuroblastoma); 0.0123 in [4]; 0.0089 in experiment [5]; -0.0208 in experiment [6]. For the same molecule, the Bliss excess in experiment [10] is -0.0202; in experiment [12] it was -0.0333; in [14], 0.0213; in [15], 0.0463; in experiment [16], -0.0065.
With `CCc1c2c(nc3ccc(O)cc13)-c1cc3c(c(=O)n1C2)COC(=O)[C@]3(O)CC` [SN-38] + O=C(c1cc(Cc2n[nH]c(=O)c3ccccc23)ccc1F)N1CCN(C(=O)C2CC2)CC1 [Olaparib] (first compound max 0.3 µM, 7x7, partner max 10 µM), the Bliss excess was 0.0923 in experiment [1]; -0.0232 in experiment [2]; 0.0221 in [3]; -0.0154 in the experiment with NB10 (Neuroblastoma); 0.0909 in experiment [4]; 0.0174 in experiment [5]. Further, the Bliss excess in experiment [6] is 0.0419; in experiment [7], 0.0913; in the experiment on 42-MG-BA (Glioblastoma), 0.0749; in [9] it was 0.0883; in experiment [10], 0.0207; in [11], 0.119. The Bliss excess in experiment [12] was -0.0464; in the experiment on NOS-1 (Osteosarcoma) it was -0.0251; with AGS (Gastric Carcinoma), 0.0897; in [13] it was 0.0491; in experiment [14], 0.06; in [15] it was -0.0181. Besides, the Bliss excess in experiment [16] amounted to 0.0493.
Regarding `C[C@@H](c1ccc2nccn2c1)n1nnc2ncc(-c3cnn(C)c3)nc21` [Savolitinib] + CN(CC[C@H](CSC1=CC=CC=C1)NC2=C(C=C(C=C2)S(=O)(=O)NC(=O)C3=CC=C(C=C3)N4CCC(CC4)[C@H](C5=CC=CC=C5C6=CC=C(C=C6)Cl)O)S(=O)(=O)C(F)(F)F)CCO [AZD4320] (first compound max 1 µM, 7x7, partner max 1 µM), the Bliss excess in experiment [1] was -0.0318; in experiment [7], -0.0544; in the experiment on 42-MG-BA (Glioblastoma) it was -0.0553; in [8] it was -0.0425; in [9], -0.0469; in experiment [11] it was -0.0547. Also, the results for the Bliss excess (in the experiment on NOS-1 (Osteosarcoma); with AGS (Gastric Carcinoma); in experiment [13]) were -0.0137, -0.0353 and -0.043, respectively.
